Reference: ChEMBL document CHEMBL1127396, “Adenosine deaminase inhibitors. Synthesis and biological evaluation of putative metabolites of (+)-erythro-9-(2S-hydroxy-3R-nonyl)adenine” (J Med Chem, 1994)

Biological target: T1, Adenosine deaminase (Bos taurus, UniProt P56658)
T1 sequence (P56658 whole entry): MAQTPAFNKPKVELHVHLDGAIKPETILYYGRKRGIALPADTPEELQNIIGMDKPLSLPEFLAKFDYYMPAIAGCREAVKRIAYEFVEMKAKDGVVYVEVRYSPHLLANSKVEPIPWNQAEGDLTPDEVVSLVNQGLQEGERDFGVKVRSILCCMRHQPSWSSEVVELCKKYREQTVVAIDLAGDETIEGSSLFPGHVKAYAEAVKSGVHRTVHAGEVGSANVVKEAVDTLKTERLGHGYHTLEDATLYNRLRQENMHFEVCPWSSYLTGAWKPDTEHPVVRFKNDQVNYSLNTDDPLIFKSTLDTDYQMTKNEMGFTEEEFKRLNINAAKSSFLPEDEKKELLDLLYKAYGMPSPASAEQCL
Test: Tested for binding affinity against calf intestinal Adenosine Deaminase (ADA)

Compound	Ki [nM]
CCCCCC[C@H]([C@H](C)O)[N+]1([O-])C(=O)Nc2c(N)ncnc21 (some centres undefined)	15.8
CCCCCC[C@H]([C@H](C)O)n1c(O)nc2c(N)ncnc21	6.4
CCCCCC[C@H]([C@H](C)O)[N+]1([O-])C=Nc2c(N)ncnc21 (some centres undefined)	3.8
CCCCCC[C@H]([C@H](C)O)n1cnc2c(N)ncnc21 [(+)-EHNA]	0.82
